Here are results for ten substances from US6451971B1, “Physiologically active peptides” (Hisamitsu Pharmaceutical Co., Ltd., priority 1999, dated 2002).

For series [1], the system named is K562 cell line derived from human chronic myelocytic leukemia. Briefly: Cell adhesion inhibitory activity on Mn2+-treated anchorage-independent K562 cells on fibronectin-coated plates. The class given is cell-based. As to conditions: for cell adhesion inhibitory activity (alanine scanning): K562 cells, biotinylated peptides of Table 1, conducted similarly to Example 2, FIG. 6. From the text: (§1) (Danen et al., J. Biol. Chem., 270, 37, 21612, 1995; Mould et al., J. Biol. Chem., 270, 44, 26270, 1995.) This allows the cells to acquire adhesiveness to the extracellular matrices mediated by integrins. Such experimental induction of adhesion can be utilized as models for cell adhesion in the processes of metastatis of cancer cells and infiltration of inflammatory cells into tissues.
(§2) The K562 cell line derived from human chronic myelocytic leukemia, U937 cell line derived from human hystiocytic lymphoma and Ramos cell line derived from human Burkitt's lymphoma (all available from American Type Tissue Culture Collection-ATCC), which are one kind of anchorage-independent cells, were then treated with Mn^2+ to prepare a system, where the cell adhesion inhibitory activity of the peptides was evaluated.
Ninety six well plates were coated with fibronectin, which is one kind of extracellular matrix: fibronectin (FN) was prepared by the method of Fukai et al., J. Biol. Chem., 266, 8807, 1991. After cells were suspended to a cell density of 2×10^5/ml in a HEPES buffered physiological saline containing 0.1 mM Mn^2+, the cells (100 μl) were added to the plate and incubated at 37° C. under 5% CO2 for 60 min. Concurrently with addition of the cell suspension, the biotinylated peptide as synthesized in Example 1 (the amino acid sequence of the peptide portion is set forth in SEQ ID NO: 2) was added to the plate to give a final concentration of from 50 to 200 μg/ml. […] As a negative control, the group to which only biotin (unbound with the peptide) had been added was also evaluated.
FN coating was carried out by adding to each well, FN phosphate buffer (100 μl) that had been prepared to 10 μg/ml, by conducting incubation at 37° C. under 5% CO2 for 60 min and then by washing the well with phosphate buffer 3 times. After cells in each well were fixed with 5% formaldehyde (Wako Pure Chemical Industries, Ltd.), unbound cells were removed and five areas were randomly selected in each well to count the cells under a microscope.
The alanine scanning method is a technique that is used to identify amino acid sequence regions essential to physiological activities of proteins and peptides. (Puffer et al., J. Virol., 71, 6541, 1997; Wu and Hersh, J. Biol. Chem., 270, 49, 29111, 1995.) This method was then employed to analyze the present peptides. The peptides listed in Table 1, all of which were biotinylated (Example 1), were used in the experiments. For evaluation, the K562 cells derived from human chronic myelocytic leukemia, which was one kind of anchorage-independent cell, were used.
Evaluation of the cell adhesion inhibitory activity was conducted similarly to Example 2.

Series [2] has as its system human fibrosarcoma HT1080. The experiment in a line: Cell adhesion (spreading) inhibitory activity on anchorage-dependent HT1080 cells. The format is cell-based. Conditions: fibronectin- or vitronectin-coated plates, biotinylated peptide 50 to 200 μg/ml, 60 min. The procedure:
(§3) The human melanoma A375SM cells and human fibrosarcoma HT1080 (both available from ATCC), which are anchorage-dependent cells, were used in the evaluation. Cell adhesion inhibitory activity was evaluated according to the method of Fukai et al. as described in Biochem. Biophys. Res. Commun., 220, 394-398, 1996. The number of spread cells was counted as an index of the cell adhesion inhibitory activity.
(§4) A375SM cells or HT1080 cells were prepared to 2×10^5/ml in Dulbecco's Modified Eagle Medium (DMEM: GIBCO BRL) containing 0.1% Ovalbumin (Wako Pure Chemical Industries, Ltd.). This cell suspension (100 μl) was added to 96-well plates that had been coated with fibronectin or vitronectin (VN), which are one kind of extracellular matrix, and incubated at 37° C. under 5% CO2 for 60 min. Concurrently with addition of the cell suspension, the biotinylated peptide as synthesized in Example 1 was added to the plates to give a final concentration of from 50 to 200 μg/ml. […] FN and VN coatings were carried out by adding to each well, FN or VN phosphate buffered saline (100 μl) that had been prepared to 0.5 μg/ml, by conducting incubation at 37° C. under 5% CO2 for 60 min and then by washing the well with phosphate buffered saline 3 times. […]

The test system of series [3] is human melanoma A375SM cells. The experiment in a line: Cell adhesion (spreading) inhibitory activity on anchorage-dependent A375SM cells. The format is cell-based. As to conditions: fibronectin- or vitronectin-coated plates, biotinylated peptide 50 to 200 μg/ml, 60 min. The procedure:
as §3, §4

In series [4] the test system is U937 cell line derived from human hystiocytic lymphoma. Briefly: Cell adhesion inhibitory activity on Mn2+-treated anchorage-independent U937 cells on fibronectin-coated plates. The format is cell-based. Conditions: U937 cells in 0.1 mM Mn2+, biotinylated peptide 50 to 200 μg/ml, 60 min, adherent cells counted.
Text: as §1, §2
(§5) Ninety six well plates were coated with fibronectin, which is one kind of extracellular matrix: fibronectin (FN) was prepared by the method of Fukai et al., J. Biol. Chem., 266, 8807, 1991. After cells were suspended to a cell density of 2×10^5/ml in a HEPES buffered physiological saline containing 0.1 mM Mn^2+, the cells (100 μl) were added to the plate and incubated at 37° C. under 5% CO2 for 60 min. […] As a negative control, the group to which only biotin (unbound with the peptide) had been added was also evaluated. […]

For series [5], the system named is Ramos cell line derived from human Burkitt's lymphoma. Briefly: Cell adhesion inhibitory activity on Mn2+-treated anchorage-independent Ramos cells on fibronectin-coated plates. Conditions: Ramos cells in 0.1 mM Mn2+, biotinylated peptide 50 to 200 μg/ml, 60 min, adherent cells counted. The format is cell-based.
Text: as §1, §2, §5

For the next series, the system named is melanoma cells. As to conditions: Humphries, Science 233, 467, 1986; cited from earlier work.
The conditions of series [6]: Saiki et al., Jpn. J. Cancer Res., 84, 558, 1993; cited from earlier work.
The conditions of series [7]: Saiki et al., Jpn. J. Cancer Res., 84, 558, 1993; cited from earlier work. This is another data set of the same source.

Entries after “also recorded” stand apart in the source; their conditions may differ. Where no end group is shown, it is not given here.

In the case of “Gly Leu Lys Pro Gly Val Asp Tyr Thr Ile Thr Ala Tyr Ala Val (GLKPGVDYTITAYAV; also: biotinylated (place not given here)) [SEQ ID NO: 7]”, in series [1], the “cell adhesion inhibitory activity (alanine scanning)” value (shortened to “cell adhesion inhibitory activity”) was “equal to or greater than the cell adhesion inhibitory activity of the peptide set forth in SEQ ID NO: 2”. On to “SEQ ID NO: 10: known peptide possessing cell adhesion inhibitory activity (Japanese Unexamined Patent Application Hei 10-147600); sequence not printed in the text (TEATIYGLEPGTEYTIYVIAL) [reference compound]”, for which the “cell adhesion inhibitory action (number of spread cells)” value in series [2] and in series [3] was “had a cell adhesion inhibitory action; also recorded: possesses a cell spreading inhibitory action” each time. Take “Gly Leu Lys Pro Gly Val Asp Tyr Thr Ile Thr Val Tyr Ala Ala (GLKPGVDYTITVYAA; also: biotinylated (place not given here)) [SEQ ID NO: 9]”: the “cell adhesion inhibitory activity” value in series [1] is on record as “equal to or greater than the cell adhesion inhibitory activity of the peptide set forth in SEQ ID NO: 2”. With “Gly Leu Lys Pro Gly Val Asp Tyr Ala Ile Thr Val Tyr Ala Val (GLKPGVDYAITVYAV; also: biotinylated (place not given here)) [SEQ ID NO: 4]”, in series [1], the “cell adhesion inhibitory activity” value is recorded as “cell adhesion inhibitory activity was lost”. As for “Gly Leu Lys Pro Gly Val Asp Tyr Thr Ile Thr Val Tyr Ala Val (GLKPGVDYTITVYAV; also: biotinylated (place not given here)) [SEQ ID NO: 2]”, the “cell adhesion inhibitory effect” value in series [4] is “nearly equal to the activity of the known cell adhesion inhibitory peptide”; in series [5], “nearly equal to the activity of the known cell adhesion inhibitory peptide”; in series [1] (K562 cells in 0.1 mM Mn2+, fibronectin-coated plates, biotinylated peptide 50 to 200 μg/ml, 60 min, adherent cells counted), “nearly equal to the activity of a known cell adhesion inhibitory peptide”. Moreover, the “cell adhesion inhibitory activity” value in series [1] is listed as “cell adhesion inhibitory activity was noted”. In addition, the “cell adhesion inhibitory action (number of spread cells)” value in series [2] and in series [3] was “exhibits no such action at all” throughout. With “Gly Leu Lys Pro Gly Val Asp Tyr Thr Ala Thr Val Tyr Ala Val (GLKPGVDYTATVYAV; also: biotinylated (place not given here)) [SEQ ID NO: 5]”, the “cell adhesion inhibitory activity” value in series [1] was “cell adhesion inhibitory activity was lost”. “Gly Leu Lys Pro Gly Val Asp Tyr Thr Ile Thr Val Ala Ala Val (GLKPGVDYTITVAAV; also: biotinylated (place not given here)) [SEQ ID NO: 8]”: in series [1], the “cell adhesion inhibitory activity” value is recorded as “equal to or greater than the cell adhesion inhibitory activity of the peptide set forth in SEQ ID NO: 2”. Consider GRGDS [GRGDS peptide], for which the “inhibition of experimental metastasis of melanoma cells to the lung” value in the series with melanoma cells was “inhibits the experimental metastasis of melanoma cells to the lung”. Also, the decomposition by enzyme result in series [6] is reported as “liable to be decomposed by enzyme”. Moreover, the “rate of clearance from the circulation following administration” value in series [7] is reported as “fast”.

For “Gly Leu Lys Pro Gly Val Asp Tyr Thr Ile Ala Val Tyr Ala Val (GLKPGVDYTIAVYAV; also: biotinylated (place not given here)) [SEQ ID NO: 6]”, in series [1], the “cell adhesion inhibitory activity” value is “cell adhesion inhibitory activity was lost”. As for “Gly Leu Lys Pro Gly Val Asp Ala Thr Ile Thr Val Tyr Ala Val (GLKPGVDATITVYAV; also: biotinylated (place not given here)) [SEQ ID NO: 3]”, the entries for the “cell adhesion inhibitory activity” value in series [1] and in series [1] (listed as SEQ NO: 3) were “equal to or greater than the cell adhesion inhibitory activity of the peptide set forth in SEQ ID NO: 2; also recorded: much greater cell adhesion inhibitory activity compared to the peptide set forth in SEQ ID NO: 2” and “stronger cell adhesion inhibitory activity than did SEQ NO: 2”, respectively.
